# Results as given in patent US20220233594A1, “TARGETING OTUB1 IN IMMUNOTHERAPY” (Board of Regents, The University ofTexas System, priority 2019, published 2022).
# Legend:
# Format in all cases: cell-based, mouse
# [1] = tested on: WT or Otub1-TKO naive OT-I CD8 T cells; assay: ELISA of cytokines in culture supernatant with AKT inhibitor; details: stimulated with anti-CD3 plus anti-CD28 for 66 h; AKTi vs DMSO
# Protocol: T-cell and NK cell purification and in vitro treatments. CD8 and CD4 T cells were isolated from splenocytes with anti-CD8- or anti-CD4-conjugated magnetic beads (Miltenyi), and naive CD8 or CD4 T cells were further purified by FACS sorting to get CD44^loCD62L^hi population. The naive T cells were stimulated in replicate wells of 96-well plates (1×10^5 cells per well) for 66 h, and the culture supernatants were analyzed by ELISA (eBioScience).
# [2] = tested on: WT or Otub1-TKO naive OT-I CD8 T cells; assay: qRT-PCR analysis of Glut1 and Hk2 expression with AKT inhibitor; details: stimulated with anti-CD3 plus anti-CD28; AKTi vs DMSO
# Protocol: Real-time quantitative PCR. RNA was extracted with TRIzol reagent from isolated WT OT-I or Otub1-TKO OT-I CD8 T cells. The RNA samples were subjected to quantitative PCR analyses using the SYBR regent (Bio-Rad). The expression of individual genes was calculated by a standard curve method and was normalized to the expression of Actb.
# [3] = tested on: WT or Otub1-TKO naive OT-I CD8 T cells; assay: Seahorse analysis of extracellular acidification rate (ECAR) with AKT inhibitor; details: activated with anti-CD3 plus anti-CD28 for 24 h; AKTi 3 μM vs DMSO
# Protocol: Metabolic assays. OCR and ECAR were measured with an XF96 extracellular flux analyzer (Seahorse Bioscience) following the manufacturer's instruction. Briefly, WT or Otub1-TKO CD8 naive T cells, either freshly isolated or in vitro activated with anti-CD3 plus anti-CD28 (for 24 h), were seeded in XF96 microplates (150,000 cells/well). The plates were quickly centrifuged to immobilize the cells. After incubation in a non-buffered assay medium (Seahorse Biosciences) in a non-CO2 incubator for 30 min, the cells were subjected to glycolysis assays with a XF glycolysis stress test kit (Seahorse Biosciences). Initial measurement of ECAR was done when cells were incubated in a glycolysis stress test medium without glucose to record the baseline. Glucose (10 mM) was then injected to induce ECAR, reflecting glycolysis rate under basal conditions. Subsequently, oligomycin (1 μM) was injected to inhibit mitochondrial ATP production and shift the energy production to glycolysis, thereby measuring the maximum glycolytic capacity (also called stressed ECAR). Finally, a glucose analog, 2-deoxy-glucose (2-DG, 100 mM) was injected to inhibit glycolysis through targeting glucose hexokinase, resulting in decreased ECAR that served as a measure to confirm the glycolysis-dependence of the detected ECAR. […]
smiles,measurement,setting,value
O=c1[nH]c2ccccc2n1C1CCN(Cc2ccc(-c3nc4cc5[nH]cnc5cc4nc3-c3ccccc3)cc2)CC1 [AKTi],"cytokine production (ELISA, culture supernatant)",[1],blocked
same,Glut1 and Hk2 expression (qRT-PCR),[2],"blocked TCR-CD28-stimulated hyper-expression of the glycolysis-regulatory genes, Glut1 and Hk2"
same,extracellular acidification rate (ECAR),[3],erased the ECAR differences between WT and Otub1-TKO CD8 T cells
